# Data reported in patent publication US20210070748A1, “INHIBITORS OF BRUTONS TYROSINE KINASE” (Pharmacyclics LLC, priority 2015, published 2021).
# Like-named read-outs stand apart in the source and are kept apart here.
# Columns and labels:
# Format in all cases: biochemical
# TEC = biological target: T1, TEC (Homo sapiens, UniProt P42680); experiment: Inhibition of a panel of kinases, in vitro HotSpot kinase assay: TEC
# T1 sequence (P42680 1-631): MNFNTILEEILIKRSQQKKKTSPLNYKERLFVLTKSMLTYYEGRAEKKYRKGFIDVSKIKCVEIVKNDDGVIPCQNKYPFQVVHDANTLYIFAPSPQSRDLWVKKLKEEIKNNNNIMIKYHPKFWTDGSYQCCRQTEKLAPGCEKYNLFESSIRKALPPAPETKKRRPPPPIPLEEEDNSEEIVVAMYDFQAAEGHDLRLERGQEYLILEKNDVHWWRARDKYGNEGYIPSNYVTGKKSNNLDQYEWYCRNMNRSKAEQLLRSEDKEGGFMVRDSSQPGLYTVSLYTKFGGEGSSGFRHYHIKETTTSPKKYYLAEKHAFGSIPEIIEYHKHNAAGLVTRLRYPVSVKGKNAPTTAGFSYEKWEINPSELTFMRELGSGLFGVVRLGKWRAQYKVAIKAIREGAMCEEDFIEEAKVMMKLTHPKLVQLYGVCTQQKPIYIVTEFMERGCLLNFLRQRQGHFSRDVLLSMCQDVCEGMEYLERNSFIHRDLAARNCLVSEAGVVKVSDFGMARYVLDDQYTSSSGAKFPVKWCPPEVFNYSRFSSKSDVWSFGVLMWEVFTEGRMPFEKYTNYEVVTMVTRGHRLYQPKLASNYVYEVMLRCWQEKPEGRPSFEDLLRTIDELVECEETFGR
# Method: (§1) The degree of inhibition of a panel of kinases is determined using the in vitro HotSpot kinase assay (purified enzymes, ^33P-ATP, an appropriate substrate and 1 μM ATP).
# TXK = biological target: T2, TXK (Homo sapiens, UniProt P42681); experiment: Inhibition of a panel of kinases, in vitro HotSpot kinase assay: TXK; conditions: Table 15, C compounds; 1 μM ATP
# T2 sequence (P42681 1-527): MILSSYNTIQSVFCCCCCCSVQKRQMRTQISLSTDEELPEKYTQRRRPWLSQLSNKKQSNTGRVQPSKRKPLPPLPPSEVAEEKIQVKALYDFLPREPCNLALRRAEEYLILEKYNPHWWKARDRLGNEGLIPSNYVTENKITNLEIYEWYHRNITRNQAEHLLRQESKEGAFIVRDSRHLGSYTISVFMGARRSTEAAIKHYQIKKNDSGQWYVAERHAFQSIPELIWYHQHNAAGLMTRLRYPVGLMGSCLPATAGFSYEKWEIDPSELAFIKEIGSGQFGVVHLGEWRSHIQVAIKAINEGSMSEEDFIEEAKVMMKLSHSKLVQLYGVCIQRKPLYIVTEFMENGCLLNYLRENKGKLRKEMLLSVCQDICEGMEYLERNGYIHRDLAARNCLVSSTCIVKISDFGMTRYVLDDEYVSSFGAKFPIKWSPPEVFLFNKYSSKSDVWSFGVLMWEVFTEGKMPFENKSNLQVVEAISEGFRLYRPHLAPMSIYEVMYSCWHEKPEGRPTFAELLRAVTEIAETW
# Method: as §1
# BTK-WT = biological target: T3, BTK-WT (Homo sapiens, UniProt Q06187); experiment: Btk in vitro inhibitory activity (one of Method A TR-FRET, Method B electrophoretic mobility shift, Method C radiometric filter binding); conditions: read-out: IC50 BTK-WT
# T3 construct: purified from insect cells as a full-length construct containing an N-terminal 6X-His tag; His6 (N); made in house; host or cells: insect cells (baculovirus Sf21 in Method B)
# ITK = biological target: T4, ITK (Homo sapiens, UniProt Q08881); experiment: Inhibition of a panel of kinases, in vitro HotSpot kinase assay: ITK
# T4 sequence (Q08881 1-620): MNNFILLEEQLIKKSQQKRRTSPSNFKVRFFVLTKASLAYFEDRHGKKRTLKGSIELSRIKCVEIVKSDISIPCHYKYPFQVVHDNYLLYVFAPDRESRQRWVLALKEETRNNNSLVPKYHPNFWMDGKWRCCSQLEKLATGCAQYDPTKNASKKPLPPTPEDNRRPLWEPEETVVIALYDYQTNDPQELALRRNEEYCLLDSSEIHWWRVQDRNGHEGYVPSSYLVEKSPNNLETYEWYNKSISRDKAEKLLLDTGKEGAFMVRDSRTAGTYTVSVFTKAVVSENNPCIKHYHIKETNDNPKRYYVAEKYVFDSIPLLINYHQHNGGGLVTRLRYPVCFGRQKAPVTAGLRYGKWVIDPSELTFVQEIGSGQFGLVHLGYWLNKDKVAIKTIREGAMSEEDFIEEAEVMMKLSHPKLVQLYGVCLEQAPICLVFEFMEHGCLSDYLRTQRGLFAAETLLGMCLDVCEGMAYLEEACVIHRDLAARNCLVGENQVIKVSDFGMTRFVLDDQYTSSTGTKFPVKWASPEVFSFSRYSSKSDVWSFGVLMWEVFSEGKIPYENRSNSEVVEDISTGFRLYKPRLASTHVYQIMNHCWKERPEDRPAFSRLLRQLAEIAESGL
# Method: as §1
# LCK = LCK (Homo sapiens, UniProt P06239); experiment: Inhibition of a panel of kinases, in vitro HotSpot kinase assay: LCK; conditions: read-out: IC50 LCK
# EGFR = EGFR (Homo sapiens, UniProt P00533); experiment: Inhibition of a panel of kinases, in vitro HotSpot kinase assay: EGFR
# Method: as §1
# SRC = SRC (Homo sapiens, UniProt P12931); experiment: Inhibition of a panel of kinases, in vitro HotSpot kinase assay: SRC; conditions: D-compounds panel data; 1 μM ATP
# Method: as §1
# [1] = Table 15, C compounds, 1 μM ATP
# [2] = D-compounds panel data, 1 μM ATP
# T3 sequence (Q06187 whole entry): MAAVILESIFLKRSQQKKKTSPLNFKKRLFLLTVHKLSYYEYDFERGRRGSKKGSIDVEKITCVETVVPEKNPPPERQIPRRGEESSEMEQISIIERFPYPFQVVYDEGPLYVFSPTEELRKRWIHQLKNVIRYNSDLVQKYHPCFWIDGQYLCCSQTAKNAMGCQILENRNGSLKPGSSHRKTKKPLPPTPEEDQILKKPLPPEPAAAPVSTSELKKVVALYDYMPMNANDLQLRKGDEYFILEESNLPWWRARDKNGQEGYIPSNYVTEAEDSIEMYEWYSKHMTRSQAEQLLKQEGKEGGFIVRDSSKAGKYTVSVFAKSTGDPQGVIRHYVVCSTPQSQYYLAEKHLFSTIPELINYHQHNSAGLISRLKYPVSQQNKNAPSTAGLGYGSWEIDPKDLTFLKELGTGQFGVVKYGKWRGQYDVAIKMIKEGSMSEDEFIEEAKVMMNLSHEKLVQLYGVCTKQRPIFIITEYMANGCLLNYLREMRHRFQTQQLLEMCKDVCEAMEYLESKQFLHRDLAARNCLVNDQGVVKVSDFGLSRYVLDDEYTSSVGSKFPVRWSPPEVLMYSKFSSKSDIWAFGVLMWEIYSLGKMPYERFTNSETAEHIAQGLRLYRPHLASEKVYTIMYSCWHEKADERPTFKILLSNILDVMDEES
# Chain of EGFR (P00533 25-1210): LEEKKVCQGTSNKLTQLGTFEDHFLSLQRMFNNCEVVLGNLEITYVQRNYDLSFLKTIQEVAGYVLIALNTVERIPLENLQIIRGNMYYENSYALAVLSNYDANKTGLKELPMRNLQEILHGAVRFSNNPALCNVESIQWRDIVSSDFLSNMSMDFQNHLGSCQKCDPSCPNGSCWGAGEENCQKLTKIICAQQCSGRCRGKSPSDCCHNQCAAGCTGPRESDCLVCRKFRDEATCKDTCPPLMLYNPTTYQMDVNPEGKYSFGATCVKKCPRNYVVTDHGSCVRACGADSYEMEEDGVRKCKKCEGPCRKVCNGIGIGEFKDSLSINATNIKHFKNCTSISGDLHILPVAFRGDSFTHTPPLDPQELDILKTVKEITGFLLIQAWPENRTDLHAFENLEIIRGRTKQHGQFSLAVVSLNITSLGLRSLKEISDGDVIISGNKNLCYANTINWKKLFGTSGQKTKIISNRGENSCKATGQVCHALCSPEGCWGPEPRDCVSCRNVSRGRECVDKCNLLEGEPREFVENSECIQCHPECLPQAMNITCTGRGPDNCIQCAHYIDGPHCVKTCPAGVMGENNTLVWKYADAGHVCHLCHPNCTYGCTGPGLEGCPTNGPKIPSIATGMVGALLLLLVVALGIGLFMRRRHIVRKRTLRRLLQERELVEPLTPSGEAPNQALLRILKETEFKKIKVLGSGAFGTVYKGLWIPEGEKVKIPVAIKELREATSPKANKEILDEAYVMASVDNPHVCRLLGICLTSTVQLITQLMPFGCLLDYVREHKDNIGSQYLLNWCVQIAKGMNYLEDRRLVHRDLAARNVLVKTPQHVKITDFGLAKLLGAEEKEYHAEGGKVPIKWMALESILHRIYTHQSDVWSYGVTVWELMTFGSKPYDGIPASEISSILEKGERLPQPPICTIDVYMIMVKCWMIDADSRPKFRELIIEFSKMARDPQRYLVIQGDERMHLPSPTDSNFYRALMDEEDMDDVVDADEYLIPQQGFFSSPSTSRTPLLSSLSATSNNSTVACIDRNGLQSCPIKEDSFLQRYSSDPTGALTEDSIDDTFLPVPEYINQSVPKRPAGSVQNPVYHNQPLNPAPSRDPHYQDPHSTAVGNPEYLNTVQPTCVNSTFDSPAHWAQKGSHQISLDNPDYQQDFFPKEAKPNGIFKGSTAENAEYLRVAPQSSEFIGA
# Chain of LCK (P06239 whole entry): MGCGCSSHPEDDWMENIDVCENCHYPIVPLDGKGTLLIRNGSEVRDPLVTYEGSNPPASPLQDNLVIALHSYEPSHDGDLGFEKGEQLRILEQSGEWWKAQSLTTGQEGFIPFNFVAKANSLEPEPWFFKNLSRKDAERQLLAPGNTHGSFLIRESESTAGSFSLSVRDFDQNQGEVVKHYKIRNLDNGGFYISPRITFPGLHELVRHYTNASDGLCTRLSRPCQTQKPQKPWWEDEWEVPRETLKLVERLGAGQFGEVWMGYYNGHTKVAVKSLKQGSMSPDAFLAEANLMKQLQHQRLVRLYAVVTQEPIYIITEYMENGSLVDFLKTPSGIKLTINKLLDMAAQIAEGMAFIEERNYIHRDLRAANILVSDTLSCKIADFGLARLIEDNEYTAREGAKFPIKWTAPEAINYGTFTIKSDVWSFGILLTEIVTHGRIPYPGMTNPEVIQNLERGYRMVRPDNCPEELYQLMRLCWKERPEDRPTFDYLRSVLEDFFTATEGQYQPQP
# Chain of SRC (P12931 whole entry): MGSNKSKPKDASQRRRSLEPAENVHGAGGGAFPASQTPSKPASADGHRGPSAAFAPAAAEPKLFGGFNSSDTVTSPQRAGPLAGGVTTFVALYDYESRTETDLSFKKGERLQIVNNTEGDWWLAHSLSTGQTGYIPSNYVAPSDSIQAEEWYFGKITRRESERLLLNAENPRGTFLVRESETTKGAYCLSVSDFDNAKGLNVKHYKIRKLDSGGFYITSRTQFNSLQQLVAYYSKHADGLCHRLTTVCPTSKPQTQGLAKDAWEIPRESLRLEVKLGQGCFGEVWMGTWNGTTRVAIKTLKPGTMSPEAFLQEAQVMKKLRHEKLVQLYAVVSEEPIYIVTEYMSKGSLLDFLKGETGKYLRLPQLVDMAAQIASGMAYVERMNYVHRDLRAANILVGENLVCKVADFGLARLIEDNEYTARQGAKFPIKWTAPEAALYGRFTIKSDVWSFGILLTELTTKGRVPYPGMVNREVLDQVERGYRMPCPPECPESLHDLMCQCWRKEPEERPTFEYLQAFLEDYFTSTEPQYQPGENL
smiles,measurement,setting,value
"C=CC(=O)N1CCC[C@@H](Nc2nnc(C(N)=O)c(Nc3ccc(-c4ncccn4)cc3)n2)C1 [Example C-52, (R)-3-(1-acryloylpiperidin-3-ylamino)-5-(4-(pyrimidin-2-yl)phenylamino)-1,2,4-triazine-6-carboxamide]",IC50,TEC; [1],≤ 10 nM
same,IC50,TXK,≤ 10 nM
same,IC50,"BTK-WT; Table 15, C compounds",≤ 10 nM
same,IC50,ITK; [1],10 to 100 nM
"C=CC(=O)N1CCC[C@@H](Nc2nnc(C(N)=O)c(Nc3ccc(C(C)C)c(C)c3)n2)C1 [Example C-53, (R)-3-(1-acryloylpiperidin-3-ylamino)-5-(4-isopropyl-3-methylphenylamino)-1,2,4-triazine-6-carboxamide]",IC50,TEC; [1],≤ 10 nM
same,IC50,TXK,≤ 10 nM
same,IC50,"BTK-WT; Table 15, C compounds",≤ 10 nM
same,IC50,ITK; [1],10 to 100 nM
"C=CC(=O)N1CCC[C@@H](Nc2nnc(C(N)=O)c(Nc3ccc(C)cc3)n2)C1 [Example C-54, (R)-3-(1-acryloylpiperidin-3-ylamino)-5-(p-tolylamino)-1,2,4-triazine-6-carboxamide]",IC50,TEC; [1],≤ 10 nM
same,IC50,TXK,≤ 10 nM
same,IC50,"BTK-WT; Table 15, C compounds",≤ 10 nM
same,IC50,ITK; [1],10 to 100 nM
"C=CC(=O)N1CCC[C@@H](Nc2nnc(C(N)=O)c(Nc3ccc(C4CCN(C5CCCC5)CC4)cc3)n2)C1 [Example C-60, (R)-3-(1-acryloylpiperidin-3-ylamino)-5-(4-(1-cyclopentylpiperidin-4-yl)phenylamino)-1,2,4-triazine-6-carboxamide]",IC50,TEC; [1],≤ 10 nM
same,IC50,TXK,≤ 10 nM
same,IC50,"BTK-WT; Table 15, C compounds",≤ 10 nM
same,IC50,ITK; [1],≤ 10 nM
"C=CC(=O)N1CCC[C@@H](Nc2nnc(C(N)=O)c(Nc3ccc(C(C)(C)C#N)cc3)n2)C1 [Example C-61, (R)-3-(1-acryloylpiperidin-3-ylamino)-5-(4-(2-cyanopropan-2-yl)phenylamino)-1,2,4-triazine-6-carboxamide]",IC50,TEC; [1],≤ 10 nM
same,IC50,TXK,≤ 10 nM
same,IC50,"BTK-WT; Table 15, C compounds",≤ 10 nM
same,IC50,ITK; [1],≤ 10 nM
"C[C@@H]1[C@H](NC(=O)c2ccc(C3CC3)cc2)CCCN1c1cnc(C(N)=O)c(Nc2ccc(N3CCCCC3)cc2)n1 [Example D-37, 5-[(2R,3R)-3-(4-cyclopropylbenzamido)-2-methylpiperidin-1-yl]-3-{[4-(piperidin-1-yl)phenyl]amino}pyrazine-2-carboxamide]",IC50,TEC; [2],10 to 100 nM
same,IC50,LCK; [2],100 to 1000 nM
same,IC50,BTK-WT; D-compounds panel data,10 to 100 nM
same,IC50,ITK; [2],1000 to 10000 nM
same,IC50,EGFR; [2],100 to 1000 nM
same,IC50,SRC,1000 to 10000 nM
"C=CC(=O)N1CCC[C@@H](Nc2nnc(C(N)=O)c(Nc3cccc(-n4nccn4)c3)n2)C1 [Example E-61, (R)-5-(3-(2H-1,2,3-triazol-2-yl)phenylamino)-3-(1-acryloylpiperidin-3-ylamino)-1,2,4-triazine-6-carboxamide]",IC50,"TEC; E compounds, Table 17",≤ 10 nM
same,IC50,"LCK; E compounds, Table 17",100 to 1000 nM
same,IC50,"BTK-WT; E compounds, Table 17",≤ 10 nM
same,IC50,"ITK; E compounds, Table 17",10 to 100 nM
same,IC50,"EGFR; E compounds, Table 17",10 to 100 nM
"C=CC(=O)N1CCC[C@@H](Nc2nnc(C(N)=O)c(Nc3ccc(-n4nccn4)cc3)n2)C1 [Example E-67, (R)-5-(4-(2H-1,2,3-triazol-2-yl)phenylamino)-3-(1-acryloylpiperidin-3-ylamino)-1,2,4-triazine-6-carboxamide]",IC50,"TEC; E compounds, Table 17",≤ 10 nM
same,IC50,"LCK; E compounds, Table 17",100 to 1000 nM
same,IC50,"BTK-WT; E compounds, Table 17",≤ 10 nM
same,IC50,"ITK; E compounds, Table 17",10 to 100 nM
same,IC50,"EGFR; E compounds, Table 17",10 to 100 nM
"C=CC(=O)N1CCC[C@@H](Nc2nnc(C(N)=O)c(Nc3ccc4ncccc4c3)n2)C1 [Example E-68, (R)-3-(1-acryloylpiperidin-3-ylamino)-5-(quinolin-6-ylamino)-1,2,4-triazine-6-carboxamide]",IC50,"TEC; E compounds, Table 17",≤ 10 nM
same,IC50,"LCK; E compounds, Table 17",100 to 1000 nM
same,IC50,"BTK-WT; E compounds, Table 17",≤ 10 nM
same,IC50,"ITK; E compounds, Table 17",≤ 10 nM
same,IC50,"EGFR; E compounds, Table 17",≤ 10 nM
"C=CC(=O)N1CCC[C@@H](Nc2cnc(C(N)=O)c(Nc3ccc(C4CCN(C5CCCC5)CC4)cc3)n2)[C@H]1C [Example E-99, 5-((2R,3R)-1-acryloyl-2-methylpiperidin-3-ylamino)-3-(4-(1-cyclopentylpiperidin-4-yl)phenylamino)pyrazine-2-carboxamide]",IC50,"TEC; E compounds, Table 17",≤ 10 nM
same,IC50,"LCK; E compounds, Table 17",10 to 100 nM
same,IC50,"BTK-WT; E compounds, Table 17",≤ 10 nM
same,IC50,"ITK; E compounds, Table 17",≤ 10 nM
same,IC50,"EGFR; E compounds, Table 17",≤ 10 nM
"C=CC(=O)N1CCC[C@@H](Nc2cnc(C(N)=O)c(Nc3ccc(C4(C)CCN(C5CCCC5)CC4)cc3)n2)[C@H]1C [Example E-100, 5-((2R,3R)-1-acryloyl-2-methylpiperidin-3-ylamino)-3-(4-(1-cyclopentyl-4-methylpiperidin-4-yl)phenylamino)pyrazine-2-carboxamide]",IC50,"TEC; E compounds, Table 17",≤ 10 nM
same,IC50,"LCK; E compounds, Table 17",10 to 100 nM
same,IC50,"BTK-WT; E compounds, Table 17",≤ 10 nM
same,IC50,"ITK; E compounds, Table 17",≤ 10 nM
same,IC50,"EGFR; E compounds, Table 17",≤ 10 nM
"C=CC(=O)N1CC[C@@H](N(C)c2cnc(C(N)=O)c(Nc3ccc(-n4nccn4)cc3)n2)C1 [Example E-116, (R)-3-(4-(2H-1,2,3-triazol-2-yl)phenylamino)-5-((1-acryloylpyrrolidin-3-yl)(methyl)amino) pyrazine-2-carboxamide]",IC50,"TEC; E compounds, Table 17",≤ 10 nM
same,IC50,"BTK-WT; E compounds, Table 17",≤ 10 nM
same,IC50,"ITK; E compounds, Table 17",≤ 10 nM
same,IC50,"EGFR; E compounds, Table 17",10 to 100 nM
"C=CC(=O)N1CC[C@@H](N(C)c2cnc(C(N)=O)c(Nc3ccc(-c4ncccn4)cc3)n2)C1 [Example E-117, (R)-5-((1-acryloylpyrrolidin-3-yl)(methyl)amino)-3-(4-(pyrimidin-2-yl)phenylamino)pyrazine-2-carboxamide]",IC50,"TEC; E compounds, Table 17",≤ 10 nM
same,IC50,"BTK-WT; E compounds, Table 17",≤ 10 nM
same,IC50,"ITK; E compounds, Table 17",≤ 10 nM
same,IC50,"EGFR; E compounds, Table 17",10 to 100 nM
"C=CC(=O)N1CC[C@@H](N(C)c2cnc(C(N)=O)c(Nc3ccc(-c4ncco4)cc3)n2)C1 [Example E-118, (R)-5-((1-acryloylpyrrolidin-3-yl)(methyl)amino)-3-(4-(oxazol-2-yl)phenylamino)pyrazine-2-carboxamide]",IC50,"TEC; E compounds, Table 17",≤ 10 nM
same,IC50,"BTK-WT; E compounds, Table 17",≤ 10 nM
same,IC50,"ITK; E compounds, Table 17",≤ 10 nM
same,IC50,"EGFR; E compounds, Table 17",10 to 100 nM
"C=CC(=O)N1CC[C@@H](N(C)c2cnc(C(N)=O)c(Nc3cnn(C)c3)n2)C1 [Example E-119, (R)-5-((1-acryloylpyrrolidin-3-yl)(methyl)amino)-3-(1-methyl-1H-pyrazol-4-ylamino)pyrazine-2-carboxamide]",IC50,"TEC; E compounds, Table 17",≤ 10 nM
same,IC50,"BTK-WT; E compounds, Table 17",≤ 10 nM
same,IC50,"ITK; E compounds, Table 17",≤ 10 nM
same,IC50,"EGFR; E compounds, Table 17",10 to 100 nM
"C=CC(=O)N1CCC[C@@H](N(C)c2cnc(C(N)=O)c(Nc3cc(C)ns3)n2)C1 [Example E-124, (R)-5-((1-acryloylpiperidin-3-yl)(methyl)amino)-3-(3-methylisothiazol-5-ylamino)pyrazine-2-carboxamide]",IC50,"TEC; E compounds, Table 17",≤ 10 nM
same,IC50,"BTK-WT; E compounds, Table 17",≤ 10 nM
same,IC50,"ITK; E compounds, Table 17",≤ 10 nM
same,IC50,"EGFR; E compounds, Table 17",10 to 100 nM
